In ChEMBL document CHEMBL2331181, “Synthesis and in vitro cytotoxic activity evaluation of novel heterocycle bridged carbothioamide type isosteviol derivatives as antitumor agents” (Bioorg Med Chem Lett, 2013):
pIC50: −log10 of the molar value.

Assays:
Assay type in all cases: functional, cell-based
[1] = system: HeLa; assay: Cytotoxicity against human HeLa cells after 48 hrs by MTT assay
[2] = system: Raji; assay: Cytotoxicity against human Raji cells after 48 hrs by MTT assay
[3] = system: A549; assay: Cytotoxicity against human A549 cells after 48 hrs by MTT assay; details: A549, 48 h
[4] = system: SGC-7901; assay: Cytotoxicity against human SGC7901 cells after 48 hrs by MTT assay; details: SGC-7901, 48 h

SMILES	pIC50 [1]	pIC50 [2]	pIC50 [3]	pIC50 [4]
CCOC(=O)[C@]1(C)CCC[C@@]2(C)[C@@H]3CC[C@@]4(C)C[C@]3(CC[C@@H]21)[C@@H]1CON(C(=S)Nc2ccccc2Br)[C@@H]14	< 4.30	< 4.30	< 4.30	< 4.30
CCOC(=O)[C@]1(C)CCC[C@@]2(C)[C@@H]3CC[C@@]4(C)C[C@]3(CC[C@@H]21)[C@@H]1CON(C(=S)Nc2ccc(C)cc2)[C@@H]14	< 4.30	4.56	4.34	4.43
CCOC(=O)[C@]1(C)CCC[C@@]2(C)[C@@H]3CC[C@@]4(C)C[C@]3(CC[C@@H]21)[C@@H]1CON(C(=S)Nc2cccc([N+](=O)[O-])c2)[C@@H]14	< 4.30	< 4.30	< 4.30	< 4.30
CCOC(=O)[C@]1(C)CCC[C@@]2(C)[C@@H]3CC[C@@]4(C)C[C@]3(CC[C@@H]21)c1cn(C(=S)Nc2ccc([N+](=O)[O-])cc2)nc14	4.44	4.75	4.45	4.47
CCOC(=O)[C@]1(C)CCC[C@@]2(C)[C@@H]3CC[C@@]4(C)C[C@]3(CC[C@@H]21)c1cn(C(=S)Nc2c(C)cccc2C)nc14	4.31	4.92	< 4.30	4.83
CCOC(=O)[C@]1(C)CCC[C@@]2(C)[C@@H]3CC[C@@]4(C)C[C@]3(CC[C@@H]21)[C@@H]1CON(C(=S)Nc2cccc(Br)c2)[C@@H]14	< 4.30	< 4.30	< 4.30	4.44
CCOC(=O)[C@]1(C)CCC[C@@]2(C)[C@@H]3CC[C@@]4(C)C[C@]3(CC[C@@H]21)c1cn(C(=S)Nc2ccc(Cl)cc2)nc14	4.41	4.89	4.70	4.66
CCOC(=O)[C@]1(C)CCC[C@@]2(C)[C@@H]3CC[C@@]4(C)C[C@]3(CC[C@@H]21)[C@@H]1CON(C(=S)Nc2ccccc2Cl)[C@@H]14	< 4.30	4.45	< 4.30	4.36
CCOC(=O)[C@]1(C)CCC[C@@]2(C)[C@@H]3CC[C@@]4(C)C[C@]3(CC[C@@H]21)[C@@H]1CON(C(=S)Nc2c(C)cccc2C)[C@@H]14	< 4.30	4.71	4.38	4.56
CCOC(=O)[C@]1(C)CCC[C@@]2(C)[C@@H]3CC[C@@]4(C)C[C@]3(CC[C@@H]21)[C@@H]1CON(C(=S)Nc2ccc(Cl)cc2Cl)[C@@H]14	< 4.30	4.66	4.36	4.60
CCOC(=O)[C@]1(C)CCC[C@@]2(C)[C@@H]3CC[C@@]4(C)C[C@]3(CC[C@@H]21)[C@@H]1CON(C(=S)Nc2cccc(Cl)c2)[C@@H]14	< 4.30	< 4.30	< 4.30	< 4.30
CCOC(=O)[C@]1(C)CCC[C@@]2(C)[C@@H]3CC[C@@]4(C)C[C@]3(CC[C@@H]21)c1cn(C(=S)Nc2cccc([N+](=O)[O-])c2)nc14	< 4.30	4.77	< 4.30	4.80
CCOC(=O)[C@]1(C)CCC[C@@]2(C)[C@@H]3CC[C@@]4(C)C[C@]3(CC[C@@H]21)[C@@H]1CON(C(=S)Nc2ccc(OC)cc2)[C@@H]14	< 4.30	4.43	< 4.30	< 4.30
CCOC(=O)[C@]1(C)CCC[C@@]2(C)[C@@H]3CC[C@@]4(C)C[C@]3(CC[C@@H]21)[C@@H]1CON(C(=S)Nc2ccccc2F)[C@@H]14	< 4.30	4.48	< 4.30	4.55
CCOC(=O)[C@]1(C)CCC[C@@]2(C)[C@@H]3CC[C@@]4(C)C[C@]3(CC[C@@H]21)[C@@H]1CON(C(=S)Nc2cccc(OC)c2)[C@@H]14	< 4.30	< 4.30	< 4.30	< 4.30
CCOC(=O)[C@]1(C)CCC[C@@]2(C)[C@@H]3CC[C@@]4(C)C[C@]3(CC[C@@H]21)[C@@H]1CON(C(=S)Nc2cccc(C)c2)[C@@H]14	< 4.30	4.36	< 4.30	4.47
C[C@@]12CC[C@@H]3[C@@](CC[C@H]4[C@@]3(C)CCC[C@@]4(C)C(=O)O)(CC1=O)C2 [ISOSTEVIOL]	< 4.30	< 4.30	< 4.30	< 4.30
CCOC(=O)[C@]1(C)CCC[C@@]2(C)[C@@H]3CC[C@@]4(C)C[C@]3(CC[C@@H]21)c1cn(C(=S)Nc2ccc(Br)cc2)nc14	< 4.30	4.86	4.61	5.15
CCOC(=O)[C@]1(C)CCC[C@@]2(C)[C@@H]3CC[C@@]4(C)C[C@]3(CC[C@@H]21)c1cn(C(=S)Nc2ccccc2)nc14	4.57	4.72	4.75	4.80
CCOC(=O)[C@]1(C)CCC[C@@]2(C)[C@@H]3CC[C@@]4(C)C[C@]3(CC[C@@H]21)c1cn(C(=S)Nc2ccccc2F)nc14	4.32	4.95	4.73	4.68

SMILES	pIC50 [1]	pIC50 [2]	pIC50 [3]	pIC50 [4]
CCOC(=O)[C@]1(C)CCC[C@@]2(C)[C@@H]3CC[C@@]4(C)C[C@]3(CC[C@@H]21)c1cn(C(=S)Nc2cccc(F)c2)nc14	< 4.30	4.62	4.47	4.71
CCOC(=O)[C@]1(C)CCC[C@@]2(C)[C@@H]3CC[C@@]4(C)C[C@]3(CC[C@@H]21)c1cn(C(=S)Nc2ccccc2[N+](=O)[O-])nc14	4.43	4.71	4.42	4.79
CCOC(=O)[C@]1(C)CCC[C@@]2(C)[C@@H]3CC[C@@]4(C)C[C@]3(CC[C@@H]21)c1cn(C(=S)Nc2ccc(OC)cc2)nc14	4.86	5.19	4.75	5.02
CCOC(=O)[C@]1(C)CCC[C@@]2(C)[C@@H]3CC[C@@]4(C)C[C@]3(CC[C@@H]21)[C@@H]1CON(C(=S)Nc2ccc(Cl)cc2)[C@@H]14	< 4.30	< 4.30	< 4.30	< 4.30
CCOC(=O)[C@]1(C)CCC[C@@]2(C)[C@@H]3CC[C@@]4(C)C[C@]3(CC[C@@H]21)c1cn(C(=S)Nc2ccccc2Br)nc14	4.36	4.71	4.42	4.77
CCOC(=O)[C@]1(C)CCC[C@@]2(C)[C@@H]3CC[C@@]4(C)C[C@]3(CC[C@@H]21)c1cn(C(=S)Nc2cccc(Cl)c2)nc14	< 4.30	4.80	4.41	4.77
CCOC(=O)[C@]1(C)CCC[C@@]2(C)[C@@H]3CC[C@@]4(C)C[C@]3(CC[C@@H]21)c1cn(C(=S)Nc2ccc(F)cc2)nc14	4.88	4.75	4.47	4.74
CCOC(=O)[C@]1(C)CCC[C@@]2(C)[C@@H]3CC[C@@]4(C)C[C@]3(CC[C@@H]21)[C@@H]1CON(C(=S)Nc2ccccc2[N+](=O)[O-])[C@@H]14	< 4.30	4.45	< 4.30	< 4.30
CCOC(=O)[C@]1(C)CCC[C@@]2(C)[C@@H]3CC[C@@]4(C)C[C@]3(CC[C@@H]21)[C@@H]1CON(C(=S)Nc2ccccc2OC)[C@@H]14	< 4.30	< 4.30	< 4.30	< 4.30
CCOC(=O)[C@]1(C)CCC[C@@]2(C)[C@@H]3CC[C@@]4(C)C[C@]3(CC[C@@H]21)[C@@H]1CON(C(=S)Nc2cccc(F)c2)[C@@H]14	< 4.30	4.44	< 4.30	< 4.30
CCOC(=O)[C@]1(C)CCC[C@@]2(C)[C@@H]3CC[C@@]4(C)C[C@]3(CC[C@@H]21)c1cn(C(=S)Nc2cccc(Br)c2)nc14	< 4.30	4.80	4.61	4.71
CCOC(=O)[C@]1(C)CCC[C@@]2(C)[C@@H]3CC[C@@]4(C)C[C@]3(CC[C@@H]21)[C@@H]1CON(C(=S)Nc2ccc([N+](=O)[O-])cc2)[C@@H]14	< 4.30	4.63	< 4.30	4.30
CCOC(=O)[C@]1(C)CCC[C@@]2(C)[C@@H]3CC[C@@]4(C)C[C@]3(CC[C@@H]21)c1cn(C(=S)Nc2ccc(Cl)cc2Cl)nc14	< 4.30	4.61	< 4.30	4.70
CCOC(=O)[C@]1(C)CCC[C@@]2(C)[C@@H]3CC[C@@]4(C)C[C@]3(CC[C@@H]21)c1cn(C(=S)Nc2ccccc2OC)nc14	< 4.30	4.99	< 4.30	< 4.30
CCOC(=O)[C@]1(C)CCC[C@@]2(C)[C@@H]3CC[C@@]4(C)C[C@]3(CC[C@@H]21)c1cn(C(=S)Nc2ccccc2C)nc14	< 4.30	4.82	4.49	4.42
CCOC(=O)[C@]1(C)CCC[C@@]2(C)[C@@H]3CC[C@@]4(C)C[C@]3(CC[C@@H]21)c1cn(C(=S)Nc2cccc(C)c2)nc14	< 4.30	4.85	4.50	4.82
CCOC(=O)[C@]1(C)CCC[C@@]2(C)[C@@H]3CC[C@@]4(C)C[C@]3(CC[C@@H]21)[C@@H]1CON(C(=S)Nc2ccc(Br)cc2)[C@@H]14	< 4.30	< 4.30	< 4.30	< 4.30
CCOC(=O)[C@]1(C)CCC[C@@]2(C)[C@@H]3CC[C@@]4(C)C[C@]3(CC[C@@H]21)c1cn(C(=S)Nc2ccccc2Cl)nc14	< 4.30	4.67	4.57	4.58
CCOC(=O)[C@]1(C)CCC[C@@]2(C)[C@@H]3CC[C@@]4(C)C[C@]3(CC[C@@H]21)[C@@H]1CON(C(=S)Nc2ccccc2C)[C@@H]14	< 4.30	4.62	< 4.30	4.42
